Laboratory results reported in US12109301B2, “Formulations, methods, and systems for treating genitourinary conditions” (Massachusetts Institute of Technology, priority 2017, dated 2024).
Like-named read-outs stand apart in the source and are kept apart here. Values belong to the compound of their own block, whether it stands above or below them.

Legend:
[1] = tested on: human ureteral smooth muscle cell (hUSMC); test: Cell viability of hUSMC in the HTS of Example 1
Description: Eight-point dosing curves were performed starting at 25 μM. […] The results were collected from three separate screening runs across three unique primary hUSMC lines (derived from three separate patients).
These relaxation percentages were derived after an 8 hour exposure.

[2] = tested on: human ureteral smooth muscle cell (hUSMC); test: High throughput screening (HTS) of hUSMC relaxation (p-MLC vs unphosphorylated MLC, single-cell analysis); type: cell-based; conditions: for relaxation of smooth muscle cells within a cell population: 8 hour exposure; for relaxation of smooth muscle (in words): hUSMC, prolonged exposure (8 hours)
Description: An HTS test was developed to quantify the contractile state of a human ureteral smooth muscle cell (hUSMC). Quantification of hUSMC relaxation was achieved by performing single-cell analysis using a computer vision (CellProfiler, Broad Institute, MA) approach that related each cell's fluorescence intensity to its state of muscle relaxation (comparing phosphorylated myosin with unphosphorylated myosin).
Primary hUMSCs were harvested from patients and cultured. There were about 10,000 cells per well, and 100 μL of media per well. Each well represented one experiment, and 250 nL of drug per well was delivered with DMSO (0.25% DMSO by volume).
In the test of this example, single cell analysis was performed on each cell (identified via computer vision) after exposure to various drugs which enable relaxation in order to correlate each cell's contractile state to the therapeutic compound, exposure time, and dose.
These correlations were determined by analyzing the fluorescent intensity of smooth muscle cells, which is related to the contractile state of the muscles. When a smooth muscle cell is signaled to contract, phosphorylation of myosin light-chain (p-MLC) occurs, which is a biomarker of muscle contraction. Conversely, when smooth muscle is left unphosphorylated (MLC), muscle relaxation occurs. Therefore, smooth muscle contraction can be computed from the proportion of p-MLC to unphosphorylated-MLC.
The tested agents included those in the following table.

whole porcine ureters = test: Bench top ex vivo model, phenylephrine-stimulated contractions, intraluminal delivery; design: species or system pig
Description: An ex vivo bench top model was designed to permit the testing of whole ureteral segments. Flow through the ureteral segments was regulated, and ranged from 0.25 mL/minute to 60 mL/minute. […] The intraluminal reservoirs contained either preheated saline buffer or dilutions of any candidate therapeutic agent.
The pounds per square inch (PSI) pressure readings were obtained using a fiber-optic pressure catheter.
For this test, a ureter was prepared through intraluminal delivery of saline (Krebs-Henseleit Buffer) (BUF) only (region “i”). The experiment then was initiated and phenylephrine [10 mM] was added to the Krebs infusion to stimulate baseline peristaltic contractions seen in patients with urinary stones (region “ii”). […] [1 μM]
Cumulative ureteral contractions were plotted over the course of the entire experiment, and are depicted at FIG. 8. For this test, a ureter was prepared through intraluminal delivery of saline (BUF) only (region “i”). The experiment was initiated and phenylephrine [10 mM] was added to the Krebs infusion to stimulate baseline peristaltic contractions seen in patients with urinary stones (region “ii”).

hUSMCs [3] = type: cell-based; conditions: human
hUSMCs [4] = conditions: for Percentages of Cells that Remained Contracted After Treatment: Nifedipine 0 μM
[5] = Description: A commercially available surgical lubricant (SURGILUBE® lubricant) was combined with a surfactant. The surfactant was Polysorbate 20, and 0.6 mL of the Polysorbate 20 was added to 19.4 mL of the surgical lubricant.
However, more surfactant may be added to increase drug concentration, e.g., up to about 500 μM.

Compound: Cc1ccc(-c2cc(C(F)(F)F)nn2-c2ccc(S(N)(=O)=O)cc2)cc1 [Celecoxib]
toxicity to the tested cells (false hit) [1]: toxicity killed the tested cells | relaxation of smooth muscle cells within a cell population ([2]; 12.5 μM): 20% | relaxation of smooth muscle cells within a cell population ([2]; 25 μM): 30%

Compound: CCOc1ccccc1OCCN[C@H](C)Cc1ccc(OC)c(S(N)(=O)=O)c1 [Tamsulosin]
cell population relaxation ([2]; 6.25 μM or greater): ~20% | relaxation of smooth muscle (in words) [2]: demonstrated efficacy at certain doses

Compound: CCCc1nc(C)c2c(=O)[nH]c(-c3cc(S(=O)(=O)N4CCN(CC)CC4)ccc3OCC)nn12 [Vardenafil]
cell population relaxation ([2]; 1.56 μM or greater): ~20%

actual drug retention in the surgical lubricant/surfactant mixture [5]: about 200 μM
Compound: C[C@@H](N)[C@H]1CC[C@H](C(=O)Nc2ccncc2)CC1 [Y-27632]
reduction in contractile frequency (whole porcine ureters; 10 μM intraluminally): 3 × | contractile activity of ureter (in words) (whole porcine ureters; 10 μM intraluminally, with 10 mM phenylephrine, listed as Y27632 (ROCK)): rapid relaxation of the ureter | frequency of peristaltic activity (in words) (whole porcine ureters; 10 μM with 10 mM phenylephrine, region iii): significant decrease in frequency | reduction in the slope of linear regression of cumulative contractions (whole porcine ureters; 10 μM, region iii vs other regions of FIG. 8): ≥ 3 × | effect after removal from the infusion (region iv) (whole porcine ureters; phenylephrine 10 mM and saline buffer continued): the effects were reversed | relaxation of smooth muscle cells within a cell population ([2]; 3.13 μM): 20% | hUSMC population relaxed (greatest effect, FIG. 1) ([2]; after an 8 hour exposure): about 40% | relaxation of smooth muscle (in words) ([2]; listed as ROCK Y-27632): significant relaxation of smooth muscle | relaxation of smooth muscle (in words) ([2]; listed as Y-27632 (ROCK)): relatively significant cell relaxation | Percentages of Cells that Retained Viability (hUSMCs [3]; 3.13 μM): 110% | Percentages of Cells that Retained Viability (hUSMCs [3]; 25 μM): 100% | Percentages of Cells that Retained Viability (hUSMCs [3]; 50 μM): 95% | relaxation (hUSMCs [4]; 25 μM alone, 8 hour exposure): about 45% | Percentages of Cells that Remained Contracted After Treatment (hUSMCs [4]; ROCK 1.56 μM): 81% | Percentages of Cells that Remained Contracted After Treatment (hUSMCs [4]; ROCK 3.13 μM): 71% | Percentages of Cells that Remained Contracted After Treatment (hUSMCs [4]; ROCK 6.25 μM): 67% | Percentages of Cells that Remained Contracted After Treatment (hUSMCs [4]; ROCK 12.50 μM): 59% | Percentages of Cells that Remained Contracted After Treatment (hUSMCs [4]; ROCK 25.00 μM): 54% | Percentages of Cells that Remained Contracted After Treatment (hUSMCs [4]; ROCK 50.00 μM): 50% | Percentages of Cells that Remained Contracted After Treatment (hUSMCs [4]; ROCK […]): 86%
